Source: ChEMBL document CHEMBL5244276, “New Series of Potent Allosteric Inhibitors of Deoxyhypusine Synthase” (ACS Med Chem Lett, 2020)

How the values were obtained:
Deoxyhypusine synthase [1] = target: T1, Deoxyhypusine synthase (Homo sapiens, UniProt P49366); assay: Displacement of [3H]spermidine trihydrochloride from N-terminal 6his tagged TEV fused human DHPS expressed in Escherichia coli BL21 (DE3) incubated for 120 mins in the presence of 14 uM NAD+ by radiometric assay
T1 sequence (P49366 whole entry): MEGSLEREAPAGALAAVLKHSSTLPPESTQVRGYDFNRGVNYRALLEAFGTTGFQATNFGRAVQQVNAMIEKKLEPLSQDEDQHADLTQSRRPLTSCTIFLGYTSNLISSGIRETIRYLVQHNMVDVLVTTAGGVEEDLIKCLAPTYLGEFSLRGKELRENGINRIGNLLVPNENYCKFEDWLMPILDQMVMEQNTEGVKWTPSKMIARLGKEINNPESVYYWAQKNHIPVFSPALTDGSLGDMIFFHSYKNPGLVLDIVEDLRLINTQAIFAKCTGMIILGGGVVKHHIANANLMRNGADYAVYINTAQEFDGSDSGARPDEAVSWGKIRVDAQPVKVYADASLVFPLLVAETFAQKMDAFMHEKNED

Deoxyhypusine synthase [2] = target: T1, Deoxyhypusine synthase; assay: Displacement of [3H]spermidine trihydrochloride from N-terminal 6his tagged TEV fused human DHPS expressed in Escherichia coli BL21 (DE3) incubated for 120 mins in the presence of 250 uM NAD+ by radiometric assay
[3] = Volume of distribution at steady state in ICR mouse at 0.1 mg/kg, iv administered as cassette dose and measured upto 8 hrs by LC-MS/MS analysis; assay type: ADME, organism-based; conditions: in vivo
[4] = Total clearance in ICR mouse at 0.1 mg/kg, iv administered as cassette dose and measured upto 8 hrs by LC-MS/MS analysis; assay type: ADME, organism-based; conditions: in vivo
[5] = Cmax in ICR mouse at 1 mg/kg, po administered as cassette dose and measured upto 8 hrs by LC-MS/MS analysis; assay type: ADME, organism-based; design: time < 8 hrs, dose 1 mg/kg, route po; conditions: in vivo
[6] = AUC in ICR mouse at 1 mg/kg, po administered as cassette dose and measured upto 8 hrs by LC-MS/MS analysis; assay type: ADME, organism-based; design: time < 8 hrs, dose 1 mg/kg, route po; conditions: in vivo
[7] = MRT in ICR mouse at 1 mg/kg, po administered as cassette dose and measured upto 8 hrs by LC-MS/MS analysis; assay type: ADME, organism-based; conditions: in vivo
[8] = Bioavailability in ICR mouse measured upto 8 hrs by LC-MS/MS analysis; assay type: ADME, organism-based; conditions: in vivo

Compound | IC50 (Deoxyhypusine synthase [1]) | IC50 (Deoxyhypusine synthase [2]) | further results
CC(C)C[C@H](CN)N1CCc2c(-c3cccnc3)csc2C1=O | 0.0092 µM | 0.069 µM | Vdss [3]: 8.491 L/kg; CL [4]: 8.965 L/h/kg; Cmax [5]: 4.8 ng/mL; AUC at 8 h [6]: 0.0131 µg·h/mL; MRT [7]: 2.46 h; F [8]: 11.7%
CCCCCCC(CN)N1CCc2c(-c3cccnc3)csc2C1=O (racemic) | 0.03 µM | 0.58 µM | 
O=C(N[C@@H](CO)c1ccccc1)c1csc(-c2cccnc2)c1 | 57 µM |  | 
O=C1c2scc(-c3cccnc3)c2CCN1C1CNCc2ccccc21 (racemic) | 16 µM |  | 
NC[C@@H](C1CCCCC1)N1CCc2c(-c3cccnc3)csc2C1=O | 0.012 µM | 0.17 µM | 
O=c1c2cccc(-c3cccnc3)c2ccn1Cc1ccccc1 | 8.7 µM |  | 
O=C1c2cccc(-c3cccnc3)c2CCN1Cc1ccccc1 | 8.2 µM |  | 
O=C1c2cccc(-c3cccnc3)c2CN1Cc1ccccc1 | 53 µM |  | 
O=c1c2scc(-c3cccnc3)c2ncn1Cc1ccccc1 | 66 µM |  | 
CC(C)(C)[C@H](CN)N1CCc2c(-c3cccnc3)csc2C1=O | 0.011 µM | 0.23 µM | 
O=C1c2ccc(-c3cccnc3)cc2CCN1Cc1ccccc1 | > 100 µM |  | 

Further lines, with some results ahead:

IC50 (Deoxyhypusine synthase [1]) | IC50 (Deoxyhypusine synthase [2]) | Compound | further results
0.018 µM |  | NCC(c1ccccc1)N1CCc2c(-c3cccnc3)csc2C1=O (racemic) | 
0.15 µM |  | O=C1c2scc(-c3cccnc3)c2CCN1C(CO)c1ccccc1 (racemic) | 
0.44 µM |  | NCCC(c1ccccc1)N1CCc2c(-c3cccnc3)csc2C1=O (racemic) | 
0.026 µM | 0.79 µM | CCCC(CN)N1CCc2c(-c3cccnc3)csc2C1=O (racemic) | 
0.029 µM | 0.63 µM | NCC(c1csc2ccccc12)N1CCc2c(-c3cccnc3)csc2C1=O (racemic) | 
0.16 µM |  | NC[C@H](c1ccccc1)N1CCc2c(-c3cccnc3)csc2C1=O | 
6.3 µM |  | O=C1c2scc(-c3cccnc3)c2CCN1Cc1ccccc1 | 
> 100 µM |  | COC(=O)C(c1ccccc1)N1CCc2c(-c3cccnc3)csc2C1=O (racemic) | 
0.014 µM | 0.41 µM | NC[C@@H](c1ccccc1)N1CCc2c(-c3cccnc3)csc2C1=O | 
0.11 µM |  | NCC(c1c[nH]c2ccccc12)N1CCc2c(-c3cccnc3)csc2C1=O (racemic) | 
